According to PMC6410080 (Viruses, 2019):
Counter-ions that a name gives are not always drawn. Like-named read-outs stand apart in the source and are kept apart here.

Legend:
SFV [1] = assay: microbe, parasite or virus in culture; type: cell-based, Semliki Forest virus; settings: Semliki Forest virus; for IC50: HeLa Kyoto, read-out: IC50 SFV (7 h); for inhibition at 10 µM: M-HeLa, 7 h, read-out: % inhibition (SFV screen)
viruses/VLPs tested = type: cell-based
SINV = assay: microbe, parasite or virus in culture; type: cell-based, Sindbis virus; settings: Sindbis virus, HeLa Kyoto, read-out: IC50 SINV
ZIKV = assay: microbe, parasite or virus in culture; type: cell-based, Zika virus; settings: for IC50: Zika virus, Huh-7, read-out: IC50 ZIKV
EBOV VLP = assay: microbe, parasite or virus in culture; type: cell-based, Ebola virus; settings: Zaire ebolavirus, HeLa Kyoto, 48 h, read-out: IC50 EBOV
HeLa Kyoto cells = settings: human
RABV VLP = assay: microbe, parasite or virus in culture; type: cell-based, rabies virus; settings: for IC50: Lyssavirus rabies, HeLa Kyoto, 24 h, read-out: IC50 RABV
in vitro [2] = settings: human, % viability (SFV screen)
HSV-1 = assay: microbe, parasite or virus in culture; type: cell-based, herpes simplex virus 1; settings: 8 h; for IC50: Human alphaherpesvirus 1, Vero, read-out: IC50 HSV (Vero)
HIV-1 = assay: microbe, parasite or virus in culture; type: cell-based, human immunodeficiency virus type 1; settings: for IC50 HIV: virus, HeLa TZM-bl, 24 h
YF17D = assay: organism not typed; type: cell-based, yellow fever 17D; settings: Huh-7, read-out: IC50 YF17D
SFV [3] = type: cell-based, Semliki Forest virus
[4] = system: DID-labelled SFV hemifusion/fusion; type: cell-based, Semliki Forest virus; settings: HeLa Kyoto, 10 μM (20 μM Raloxifene; Bafilomycin 100 nM), 40 min at 37 °C
HCV = assay: microbe, parasite or virus in culture; type: cell-based, hepatitis C virus; settings: Hepatitis C virus, Huh7.5, read-out: IC50 HCV
DENV-3 = assay: microbe, parasite or virus in culture; type: cell-based, dengue virus; settings: Dengue virus, DENV3, Huh-7, read-out: IC50 DENV-3
Huh7 cells = assay: MTT assay, Huh7 cells; settings: for TC50 DENV-2 (7 + 17 h): Huh7, compounds 7 h then compound-free media 17 h; for TC50 DENV-2 (24 h): Huh7, compounds 24 h
in vitro [5] = settings: human
H5N1 VLP = assay: microbe, parasite or virus in culture; type: cell-based, influenza H5N1; settings: for IC50: Influenza A virus, H5N1, HeLa Kyoto, 48 h, read-out: IC50 H5N1
VACV = assay: microbe, parasite or virus in culture; type: cell-based, vaccinia virus; settings: for IC50: Orthopoxvirus vaccinia, HeLa Kyoto, 8 h, read-out: IC50 VACV
DENV-1 = assay: microbe, parasite or virus in culture; type: cell-based, dengue virus; settings: Dengue virus, DENV1, Huh-7, read-out: IC50 DENV-1
DENV-2 = DENV-2 infection assay / secondary screen (E protein staining); type: cell-based, dengue virus serotype 2; settings: Dengue virus, DENV2, Huh-7, 24 h; for inhibition at 10 µM: read-out: % inhibition (DENV-2 screen)
VSV VLP = assay: microbe, parasite or virus in culture; type: cell-based, vesicular stomatitis virus; settings: Vesicular stomatitis virus, HeLa Kyoto, 24 h, read-out: IC50 VSV
SFV E1 trimer formation = settings: HeLa Kyoto, MOI 100; Chloroquine 100 μM
[6] = system: Renilla luciferase expression (protein synthesis); type: cell-based
VSV_Blam_VLP fusion = assay: microbe, parasite or virus in culture; type: cell-based; settings: Vesicular stomatitis virus, HeLa Kyoto, read-out: Inhibition of VSV_Blam_VLP fusion compared to DMSO controls
SFV internalisation = type: cell-based, Semliki Forest virus
in vivo = settings: CD1, mouse, ip, 10 mg/kg
[7] = in vivo
[8] = read-out: IC50 DENV-2 (7 + 17 h)

Row | Compound | IC50 (SFV [1]) | inhibition at 10 µM (SFV [1]) | Viruses Inhibited (viruses/VLPs tested) | IC50 (SINV) | IC50 (EBOV VLP) | TC50 SFV (7 h) (HeLa Kyoto cells) | TC50 SFV (7h) (HeLa Kyoto cells) | viability at 10 µM (in vitro [2]) | IC50 (YF17D) | Activity when added before SFV or 30 and 60 min after internalisation (SFV [3]) | Time of Addition (SFV [3]) | Inhibition of DID-SFV de-quenching (in words) [4] | IC50 (HCV) | IC50 (DENV-3) | TC50 DENV-2 (7 + 17 h) (Huh7 cells) | TC50 DENV-2 (24 h) (Huh7 cells) | viability at 10 µM (in vitro [5]) | IC50 (DENV-1) | inhibition at 10 µM (DENV-2) | IC50 (DENV-2; [8]) | also measured
1 | CCN(CC)Cc1cc(Nc2ccnc3cc(Cl)ccc23)ccc1O [Amodiaquine, Amodiaquine dihydrochloride dihydrate] | 8.5 µM | 73.3% | Endosomal pH-dep. | 11.3 µM | 0.9 µM | >50 µM | >50000 µM | 115% | 5.3 µM | act exclusively before (or at the stage of) fusion | Before fusion | Intermediate levels of inhibition | 4.2 µM | ~25 µM | 44.2 µM | 18.4 µM | 79% | ~24.8 µM | 92.1% | 12.7 µM | IC50 ZIKV (ZIKV): No inhibition; IC50 (RABV VLP): 23.5 µM; IC50 (HSV-1): 28.2 µM; IC50 HIV (HIV-1): No inhibition; IC50 (H5N1 VLP): 13.6 µM; IC50 VACV (VACV): No inhibition; IC50 (DENV-2; read-out: IC50 DENV-2 (24 h)): 17.2 µM; IC50 (VSV VLP): 11.2 µM
2 | CC(C)COCC(CN(Cc1ccccc1)c1ccccc1)N1CCCC1 (stereo not shown) [Bepridil, Bepridil hydrochloride] | 9.5 µM | 91.2% | Endosomal pH-dep. | 14.6 µM | 0.8 µM | 34.9 µM | 34900 µM | 71.3% | 7.1 µM | act exclusively before (or at the stage of) fusion | Before fusion | Intermediate levels of inhibition | ~12.4 µM | ~20 µM | ~48.8 µM | ~23.4 µM | 48.7% | ~20 µM | 97.8% | 15.2 µM | IC50 (ZIKV): ~25.2 µM; IC50 (RABV VLP): 6.9 µM; IC50 HSV (Vero) (HSV-1; virus, Vero cells): No inhibition; IC50 HIV (HIV-1): No inhibition; IC50 (H5N1 VLP): 8.2 µM; IC50 (VACV): 26.8 µM; IC50 (DENV-2; read-out: IC50 DENV-2 (24 h)): 12.1 µM; IC50 (VSV VLP): 10.4 µM
3 | CCN(CC)CCCC(C)Nc1ccnc2cc(Cl)ccc12 (stereo not shown) [Chloroquine] | – | – | – | – | – | – | – | – | – | – | – | – | – | – | – | – | – | – | – | – | SFV E1 trimer formation (SFV E1 trimer formation): prevented trimer formation
4 | O=C(Nc1ccc([N+](=O)[O-])cc1Cl)c1cc(Cl)ccc1O [Niclosamide] | 3 µM | 73.1% | All tested | 2.8 µM | 2.9 µM | >50 µM | >50000 µM | 104% | < 0.3 µM | minor but reproducible decrease in activity | Before and after fusion | Strong inhibition of de-quenching | 0.2 µM | 1.6 µM | >50 µM | 12.8 µM | 36.9% | 1.5 µM | 75.4% | 1.1 µM | Decrease of Renilla signal (protein synthesis) [6]: more than 50%; IC50 (ZIKV): ~0.7 µM; inhibition at 10 µM (VSV_Blam_VLP fusion): > 50%; Internalised SFV E1/E2 after subtilisin treatment (SFV internalisation): Loss of E1/E2; Kinetics of SFV internalisation (subtilisin resistance) (SFV internalisation): remained lower compared to untreated control; IC50 (RABV VLP): 1.3 µM; IC50 (HSV-1): 1.3 µM; IC50 (HIV-1; Human immunodeficiency virus 1, 24 h, read-out: IC50 HIV): 3.3 µM; Tmax (in vivo): 15 min; SFV E1 trimer formation (SFV E1 trimer formation): No trimers were observed; Peak blood concentration ([7]; CD1, mouse): 40 µM; Blood level after 2 h ([7]; mouse): undetectable; IC50 (H5N1 VLP): 1.4 µM; IC50 (VACV): 3 µM; IC50 (DENV-2; read-out: IC50 DENV-2 (24 h)): 0.4 µM; IC50 (VSV VLP): 3.5 µM
5 | O=C(c1ccc(OCCN2CCCCC2)cc1)c1c(-c2ccc(O)cc2)sc2cc(O)ccc12 [Raloxifene, Raloxifene hydrochloride] | 15.1 µM | 87.7% | Unclear pattern | 30.6 µM | 1.4 µM | >50 µM | >50000 µM | 92% | 7.8 µM | minor but reproducible decrease in activity | Before and after fusion | Intermediate levels of inhibition | 3.9 µM | 5.3 µM | 24.8 µM | ~22.63 µM | 60.4% | 8.8 µM | 80% | 5.7 µM | inhibition at 10 µM (VSV_Blam_VLP fusion): > 50%; IC50 RABV (RABV VLP): No inhibition; IC50 (HSV-1): 23.5 µM; IC50 HIV (HIV-1): No inhibition; IC50 H5N1 (H5N1 VLP): No inhibition; IC50 (VACV): 20 µM; IC50 (DENV-2; read-out: IC50 DENV-2 (24 h)): 9.8 µM; IC50 (VSV VLP): 12.7 µM
